# In US7332518B2, “Carboxamides as fungicides in agriculture” (Syngenta Crop Protection, Inc., priority 2001, dated 2008):
row,melting point,Compound
1,146 to 149 °C,"Cn1cc(C(=O)NC=C=Cc2ccccc2-c2ccc(Br)cc2)c(C(F)(F)F)n1 [Compound 2.123, 1-Methyl-3-trifluoromethyl-1H-pyrazole-4-carboxylic acid (4′-bromobiphenyl-2-yl)propa-1,2-dienyl-amide]"
2,171 to 172 °C,"Cn1cc(C(=O)NCC#Cc2ccccc2-c2ccc(Br)cc2)c(C(F)(F)F)n1 [Compound 2.010, 1-Methyl-3-trifluoromethyl-1H-pyrazole-4-carboxylic acid (4′-bromobiphenyl-2-yl)prop-2-ynyl-amide]"
3,142 to 144 °C,"C#CCN(C(=O)c1cn(C)cc1C(F)(F)F)c1cccc2c1C(C)CC2(C)C (stereo not drawn) [Compound 10.3, 1-methyl-4-trifluoromethyl-1H-pyrrole-3-carboxylic acid prop-2-ynyl-(1,1,3-trimethylindan-4-yl)amide]"
